Laboratory results as given in patent publication US20230312587A1, “PTERIDINONE COMPOUNDS AND USES THEREOF” (Vertex Pharmaceutical Incorporated, priority 2018, published 2023).

tested on: β-catenin-TCF-mediated reporter transcription activity in Colo 205 cells; assay: Colo 205 reporter assay (TCF/LEF luciferase); type: cell-based; conditions: Colo 205 TCF/LEF luciferase reporter, five hours after addition of compound; read-out: TCF reporter Colo205 IC50
Outline: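 Luciferase signal from a TCF/LEF-driven reporter, stably integrated in Colo 205 colon cancer cells, was measured 5 h after compound addition.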

SMILES	IC50
Cc1nc(NCc2cnn(Cc3cccnc3C(F)(F)F)c2)nc2c1NC(=O)[C@H](C)N2C [Compound 183]	< 300 nM
COCC1(C)C(=O)Nc2c(C)nc(N[C@H]3C[C@H](Oc4cc(F)c(F)c(F)c4)C3)nc2N1C (relative stereo) [Compound 720, 7-(methoxymethyl)-4,7,8-trimethyl-2-((trans-3-(3,4,5-trifluorophenoxy)cyclobutyl)amino)-7,8-dihydropteridin-6(5H)-one]	300 to 1000 nM

same assay, conditions: Homo sapiens, COLO 205, 5 h, Colo 205 TCF/LEF luciferase reporter, five hours after addition of compound; read-out: TCF reporter Colo205 IC50

IC50	SMILES
< 300 nM	Cc1nc(NCc2cnn([C@H](C)c3ccc(F)cc3)c2)nc2c1NC(=O)[C@H](C)N2C [Compound 72, (7S)-2-(((1-((R)-1-(4-fluorophenyl)ethyl)-1H-pyrazol-4-yl)methyl)amino)-4,7,8-trimethyl-7,8-dihydropteridin-6(5H)-one]
1000 to 5000 nM	C[C@H]1C(=O)Nc2cnc(NCc3cnn(CCc4ccc(F)cc4F)c3)nc2N1C [Compound 119, (7S)-2-(((1-(2,4-difluorophenethyl)-1H-pyrazol-4-yl)methyl)amino)-7,8-dimethyl-7,8-dihydropteridin-6(5H)-one]
≥ 5000 nM	Cc1nc(NC2CN(C(=O)C3(C)CCCO3)C2)nc2c1NC(=O)[C@H](C(C)C)N2C (stereo partly drawn) [Compound 638, (7S)-7-isopropyl-4,8-dimethyl-2-((1-(2-methyltetrahydrofuran-2-carbonyl)azetidin-3-yl)amino)-7,8-dihydropteridin-6(5H)-one]
300 to 1000 nM	Cc1nc(N[C@H]2C[C@@H](Nc3ccc(OC(F)(F)F)cn3)C2)nc2c1NC(=O)[C@H](C)N2C [Compound 577, (S)-4,7,8-trimethyl-2-((cis-3-((5-(trifluoromethoxy)pyridin-2-yl)amino)cyclobutyl)amino)-7,8-dihydropteridin-6(5H)-one]
300 to 1000 nM	COC1(C2C(=O)Nc3c(C)nc(NCc4cnn(Cc5ccc(C(F)(F)F)nc5)c4)nc3N2C)CC1 (stereo not shown) [Compound 665, 7-(1-methoxycyclopropyl)-4,8-dimethyl-2-(((1-((6-(trifluoromethyl)pyridin-3-yl)methyl)-1H-pyrazol-4-yl)methyl)amino)-7,8-dihydropteridin-6(5H)-one]
300 to 1000 nM	Cc1nc(NCc2cnn(Cc3ccc(OC(C)C)nc3)c2)nc2c1N(C)C(=O)[C@H](C)N2C [Compound 129, (7S)-2-(((1-((6-isopropoxypyridin-3-yl)methyl)-1H-pyrazol-4-yl)methyl)amino)-4,5,7,8-tetramethyl-7,8-dihydropteridin-6(5H)-one]
< 300 nM	CCC[C@H]1C(=O)Nc2c(C)nc(NCc3cnn(Cc4ccc(C(F)(F)F)nc4)c3)nc2N1C [Compound 220, (7S)-4,8-dimethyl-7-propyl-2-(((1-((6-(trifluoromethyl)pyridin-3-yl)methyl)-1H-pyrazol-4-yl)methyl)amino)-7,8-dihydropteridin-6(5H)-one]
< 300 nM	Cc1nc(N[C@H]2C[C@H](Oc3ccc(F)c(F)c3F)C2)nc2c1NC(=O)[C@H](C)N2C [Compound 291, (7S)-4,7,8-trimethyl-2-((trans 3-(2,3,4-trifluorophenoxy)cyclobutyl)amino)-7,8-dihydropteridin-6(5H)-one]
< 300 nM	Cc1nc(NCc2cn(Cc3cc(F)c(F)c(F)c3)nn2)nc2c1NC(=O)[C@H](C(C)C)N2C [Compound 452, (S)-7-isopropyl-4,8-dimethyl-2-(((1-(3,4,5-trifluorobenzyl)-1H-1,2,3-triazol-4-yl)methyl)amino)-7,8-dihydropteridin-6(5H)-one]
< 300 nM	Cc1nc(N[C@H]2C[C@H](Oc3cnc(C(F)(F)F)nc3)C2)nc2c1NC(=O)[C@H](C)N2C [Compound 333, (7S)-4,7,8-trimethyl-2-((trans-3-((2-(trifluoromethyl)pyrimidin-5-yl)oxy)cyclobutyl)amino)-7,8-dihydropteridin-6(5H)-one]
300 to 1000 nM	COc1cc(F)ccc1CN1CC(Nc2nc(C)c3c(n2)N(C)[C@@H](C(C)C)C(=O)N3)C1 [Compound 603, (S)-2-((1-(4-fluoro-2-methoxybenzyl)azetidin-3-yl)amino)-7-isopropyl-4,8-dimethyl-7,8-dihydropteridin-6(5H)-one]
< 300 nM	Cc1nc(N[C@H]2C[C@@H](Cn3ccc(C(F)(F)F)n3)C2)nc2c1NC(=O)[C@H](C(C)C)N2C [Compound 690, (S)-7-isopropyl-4,8-dimethyl-2-((cis-3-((3-(trifluoromethyl)-1H-pyrazol-1-yl)methyl)cyclobutyl)amino)-7,8-dihydropteridin-6(5H)-one]
< 300 nM	Cc1nc(NCc2cnn(Cc3ccc(C(F)(F)F)nc3)c2)nc2c1NC(=O)[C@H](C1CCC1)N2C [Compound 567, (7S)-7-cyclobutyl-4,8-dimethyl-2-(((1-((6-(trifluoromethyl)pyridin-3-yl)methyl)-1H-pyrazol-4-yl)methyl)amino)-7,8-dihydropteridin-6(5H)-one]
< 300 nM	CO[C@H](C)[C@H]1C(=O)Nc2c(C)nc(NCc3cnn(Cc4ccc(C(F)(F)F)nc4)c3)nc2N1C [Compound 498, (S)-7-((R)-1-methoxyethyl)-4,8-dimethyl-2-(((1-((6-(trifluoromethyl)pyridin-3-yl)methyl)-1H-pyrazol-4-yl)methyl)amino)-7,8-dihydropteridin-6(5H)-one]
< 300 nM	CO[C@H](C)[C@H]1C(=O)N(C)c2cnc(NCc3cnn(Cc4cc(F)c(F)c(F)c4)c3)nc2N1C [Compound 21, (7S)-7-((R)-1-methoxyethyl)-5,8-dimethyl-2-(((1-(3,4,5-trifluorobenzyl)-1H-pyrazol-4-yl)methyl)amino)-7,8-dihydropteridin-6(5H)-one]
300 to 1000 nM	Cc1nc(NCc2cnn(Cc3ccc(C(C)(C)C)nc3)c2)nc2c1NC(=O)[C@H](C)N2C [Compound 211, (7S)-2-(((1-((6-(tert-butyl)pyridin-3-yl)methyl)-1H-pyrazol-4-yl)methyl)amino)-4,7,8-trimethyl-7,8-dihydropteridin-6(5H)-one]
< 300 nM	Cc1nc(NCc2cnn(Cc3ccc(Cl)nc3)c2)nc2c1NC(=O)[C@H](C)N2C [Compound 194, (7S)-2-(((1-((6-chloropyridin-3-yl)methyl)-1H-pyrazol-4-yl)methyl)amino)-4,7,8-trimethyl-7,8-dihydropteridin-6(5H)-one]
≥ 5000 nM	Cc1nc(N[C@H]2C[C@H](COc3cc(C(F)(F)F)ccn3)C2)nc2c1NC(=O)[C@H](C)N2C [Compound 369, (7S)-4,7,8-trimethyl-2-((trans-3-(((4-(trifluoromethyl)pyridin-2-yl)oxy)methyl)cyclobutyl)amino)-7,8-dihydropteridin-6(5H)-one]
1000 to 5000 nM	Cc1nc(NCc2ccc(-c3ccc(F)cc3)o2)nc2c1NC(=O)[C@H](C)N2C [Compound 40, (7S)-2-(((5-(4-Fluorophenyl)furan-2-yl)methyl)amino)-4,7,8-trimethyl-7,8-dihydropteridin-6(5H)-one]
1000 to 5000 nM	Cc1nc(NC2CN(C(=O)c3csc(Cl)n3)C2)nc2c1NC(=O)[C@H](C(C)C)N2C [Compound 630, (S)-2-((1-(2-chlorothiazole-4-carbonyl)azetidin-3-yl)amino)-7-isopropyl-4,8-dimethyl-7,8-dihydropteridin-6(5H)-one]
≥ 5000 nM	Cc1nc(N[C@H]2C[C@H](Oc3ncc(F)cn3)C2)nc2c1NC(=O)[C@H](C)N2C [Compound 276, (7S)-2-((trans-3-((5-fluoropyrimidin-2-yl)oxy)cyclobutyl)amino)-4,7,8-trimethyl-7,8-dihydropteridin-6(5H)-one]
< 300 nM	Cc1nc(N[C@H]2C[C@@H](COc3cncc(C(F)(F)F)c3)C2)nc2c1NC(=O)[C@H](C)N2C [Compound 363, (7S)-4,7,8-trimethyl-2-((cis-3-(((5-(trifluoromethyl)pyridin-3-yl)oxy)methyl)cyclobutyl)amino)-7,8-dihydropteridin-6(5H)-one]
< 300 nM	CCN1C(=O)[C@H](C)N(CC)c2nc(NCc3cnn(Cc4cc(F)c(F)c(F)c4)c3)ncc21 [Compound 31, (7S)-5,8-diethyl-7-methyl-2-(((1-(3,4,5-trifluorobenzyl)-1H-pyrazol-4-yl)methyl)amino)-7,8-dihydropteridin-6(5H)-one]
1000 to 5000 nM	Cc1cc(Cn2cc(CNc3nc(C)c4c(n3)N(C)[C@@H](C)C(=O)N4)cn2)ccn1 [Compound 178, (7S)-4,7,8-trimethyl-2-(((1-((2-methylpyridin-4-yl)methyl)-1H-pyrazol-4-yl)methyl)amino)-7,8-dihydropteridin-6(5H)-one]
300 to 1000 nM	Cc1nc(N[C@H]2C[C@H](Sc3ccc(C(F)(F)F)cc3)C2)nc2c1NC(=O)[C@H](C)N2C [Compound 317, (7S)-4,7,8-trimethyl-2-((trans-3-((4-(trifluoromethyl)phenyl)thio)-cyclobutyl)amino)-7,8-dihydropteridin-6(5H)-one]
1000 to 5000 nM	Cc1nc(NCc2cnn(Cc3ccc(C(F)(F)F)nc3)c2)nc2c1NC(=O)[C@H](CO)N2C [Compound 604, (S)-7-(hydroxymethyl)-4,8-dimethyl-2-(((1-((6-(trifluoromethyl)pyridin-3-yl)methyl)-1H-pyrazol-4-yl)methyl)amino)-7,8-dihydropteridin-6(5H)-one]
1000 to 5000 nM	Cc1nc(NCc2cnn([C@@H](C)Cc3ccccc3)c2)nc2c1NC(=O)[C@H](C)N2C [Compound 102, (7S)-4,7,8-trimethyl-2-(((1-((S)-1-phenylpropan-2-yl)-1H-pyrazol-4-yl)methyl)amino)-7,8-dihydropteridin-6(5H)-one]

SMILES	IC50
COc1c(F)cc(Cn2cc(CNc3nc(C)c4c(n3)N(C)[C@@H]([C@H](C)OC(C)(C)C)C(=O)N4)cn2)cc1F [Compound 746, (S)-7-((S)-1-(tert-butoxy)ethyl)-2-(((1-(3,5-difluoro-4-methoxybenzyl)-1H-pyrazol-4-yl)methyl)amino)-4,8-dimethyl-7,8-dihydropteridin-6(5H)-one]	300 to 1000 nM

same assay, conditions: Homo sapiens, COLO 205, 5 h, R-isomer at C2 (corresponding to C2 S-isomer); Colo 205 TCF/LEF luciferase reporter, 5 h; read-out: TCF reporter Colo205 IC50

IC50	SMILES
< 300 nM	CCN1c2nc(NCc3cnn(Cc4ccc(F)cc4)c3)ncc2N(C)C(=O)[C@H]1C [Compound I-860]
